Results published in patent publication US12478605B2, “Biochanin a derivatives for treatment of BEST1-related retinopathies” (Universität Regensburg, priority 2020, dated 2025).
Numbering of substitutions follows the chain as printed.

Legend:
Assay type in all cases: cell-based
[1] = target: T1, mutant BEST1 R218C (Homo sapiens, UniProt O76090, R218C); assay: YFP-halide transport assay (I- influx), MDCKII cells expressing mutant BEST1-R218C
T1 construct: expressed in transfected cells
T1 sequence (O76090 1-585 R218C): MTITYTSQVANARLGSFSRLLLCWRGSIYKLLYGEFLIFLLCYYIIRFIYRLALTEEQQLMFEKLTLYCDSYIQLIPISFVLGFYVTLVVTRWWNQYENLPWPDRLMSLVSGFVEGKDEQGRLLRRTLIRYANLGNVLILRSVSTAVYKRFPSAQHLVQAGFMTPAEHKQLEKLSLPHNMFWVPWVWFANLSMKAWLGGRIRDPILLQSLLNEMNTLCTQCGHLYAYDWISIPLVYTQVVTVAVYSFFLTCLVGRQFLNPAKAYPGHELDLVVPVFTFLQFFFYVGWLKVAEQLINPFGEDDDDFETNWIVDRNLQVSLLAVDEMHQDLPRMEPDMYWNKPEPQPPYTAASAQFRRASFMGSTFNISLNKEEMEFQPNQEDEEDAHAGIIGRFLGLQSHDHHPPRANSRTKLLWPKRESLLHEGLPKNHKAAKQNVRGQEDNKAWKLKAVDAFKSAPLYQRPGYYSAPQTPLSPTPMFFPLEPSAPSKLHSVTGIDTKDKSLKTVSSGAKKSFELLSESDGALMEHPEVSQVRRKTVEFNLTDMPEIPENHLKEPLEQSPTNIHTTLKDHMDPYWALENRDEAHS
Description: (§1) Human hiPSC-RPE or MDCKII cells were transduced via lentivirus particles which were produced by co-transfecting HEK293T cells with the yellow fluorescence protein (YFPH148Q/I152L)-pLJM1 and helper plasmids pMD2.G and psPAX2 using the Ca^2+ phospate transfection method. After six weeks of cultivation in 96-well black microtiter plates, cells were incubated with 100 mM Cl^− containing solution and basal YFP fluorescence was measured in a Tecan microplate reader. Subsequently Cl^− was replaced with equimolar I^− and decrease of YFP fluorescence intensity was monitored for another 2 min in 10 sec intervals.
(§2) To analyze BEST1-mediated anion transport in the cell lines generated in the previous examples, a well-established halide transport assay (Galietta et al., 2001) was adapted. […] Addition of I— leads to specific YFP quenching over time and changes of fluorescence intensities can be monitored on a plate reader. MDCKII cells were incubated with 100 mM Cl— containing solution and steady state YFP fluorescence signal intensities were measured after 6 minutes. Subsequently, Cl— was replaced by equimolar I— and anion permeability was monitored by decreasing YFP intensities as a result of BEST1-mediated I— influx in a time course up to 2 minutes (FIG. 2B). For several independent BEST1 wildtype cell lines a fast kinetic of decreasing fluorescence intensities to ˜30 to 40% was observed while the untransfected control cell lines remained flat (FIGS. 2C and D).
Example 8—Evaluation of BioA(C2H3O2)2 activity in MDCKII cells MDCKII cells co-expressing YFP and BEST1 wildtype or mutant p.(R218C) were seeded on black 96-well plates and cultivated for 6 days to achieve polarity, a requirement for correct basolateral localization of BEST1 in epithelial cells. Compounds were tested separately at 10 μM concentration in a 96-well format. After compound addition for 24 h, cells were subjected to an inwardly directed I— gradient to drive I— influx and produce decreasing (quenched) fluorescence signals. […]

[2] = tested on: untransfected MDCKII cells; assay: YFP-halide transport assay (I- influx), untransfected MDCKII controls; conditions: compound addition for 24 h, YFP quenching, FIG. 4B
Description: as §1
as §2, with “For several independent BEST1 wildtype cell lines a fast kinetic of decreasing fluorescence intensities to ˜30 to 40% was observed while the untransfected control cell lines remained flat (FIGS. 2C and D).” left out

[3] = target: T2, BEST1 wildtype (Homo sapiens, UniProt O76090); assay: YFP-halide transport assay (I- influx), MDCKII cells expressing BEST1 wildtype; conditions: MDCKII BEST1 wildtype cell lines; compound addition for 24 h; YFP quenching; FIG. 4B
T2 construct: expressed in transfected cells
T2 sequence (O76090 1-585): T1 sequence (O76090 1-585 R218C) with C218R
Description: as §1
as §2, with “For several independent BEST1 wildtype cell lines a fast kinetic of decreasing fluorescence intensities to ˜30 to 40% was observed while the untransfected control cell lines remained flat (FIGS. 2C and D).” left out

COc1ccc(-c2coc3cc(OC(C)=O)cc(OC(C)=O)c3c2=O)cc1 [Biochanin A diacetate, 3-(4-Methoxyphenyl)-4oxo-4H-chromene-5,7-diyl diacetate]
effect on BEST1 anion transport activity ([1]; MDCKII cells, FIG. 4A, comparison of Biochanin A derivatives): greatest effect
anion transport activity (I- influx) ([1]; MDCKII mutant BEST1-R218C, various concentrations from 2 μM to 20 μM, 24 h, FIG. 4C): strongly
effect on kinetics of I- influx (anion transport activity) [2]: no or only little effect
effect on kinetics of I- influx (anion transport activity) [3]: no or only little effect
